Entries after “also recorded” stand apart in the source; their conditions may differ. Where two headings read alike, the source gives them in different places.
How the values were obtained:
SMMC-7721 = test system: SMMC-7721; parameters: method as in PMID 29772302; settings: cited from earlier work
A-549 = test system: A-549; parameters: method as in PMID 29772302; settings: cited from earlier work
[1] = Plasma protein binding by equilibrium dialysis, rat plasma; type: in vitro ADME; settings: Sprague Dawley
Description: (§1) Protein binding was determined in vitro by equilibrium dialysis of plasma of rats or human serum albumin. Blank dialysate, internal dialysate, and external dialysate were prepared separately. The internal dialysate was prepared by taking 0.4 mL of blank plasma and adding 100 μL of the 10-dehydroxyl-12-demethoxy-conophylline series standard solution to prepare the equivalent of 10-dehydroxyl-12-demethoxy-conophylline plasma concentrations of 0.078, 0.156, 0.312, 0.625, 1.250, 2.500, 5.000, and 20.000 μg/mL simulating biological samples. The external dialysate was prepared by taking 0.4 mL of blank dialysate and adding 100 μL of the 10-dehydroxyl-12-demethoxy-conophylline series standard solution to prepare the equivalent of 10-dehydroxyl-12-demethoxyconophylline plasma concentrations of […] simulating dialysate samples. The protein binding rate of 10-dehydroxyl-12-demethoxy-conophylline in plasma was measured using the equilibrium dialysis method in this experiment. The concentration of unbound compound (B) and bound compound to protein (A) were calculated as follows:F = (A − B)/A,(1) where F is the bounded fraction, A is the compound concentration in the plasma compartment, and B is the concentration of the compound in the phosphate buffer compartment.

MCF-7 = test system: MCF-7; parameters: method as in PMID 29772302; settings: cited from earlier work
SW480 = test system: SW480; parameters: method as in PMID 29772302; settings: cited from earlier work
[2] = Plasma protein binding by equilibrium dialysis, human plasma; type: in vitro ADME; settings: read-out: protein binding degree (converted)
Description: as §1

[3] = Tissue distribution in rats after a single i.v. dose; type: in vivo, Sprague Dawley rats; settings: rat, single i.v. dose 8 mg/kg
Description: (§2) Chromatographic separation was performed using a UPLC system (Waters ACQUITY-CLASS. US) with an analytical column Kinetex (C18, 1.7 μm, 2.1 mm × 100 mm; Phenomenex; California; CA, USA) at 25 °C. Water and methanol (75:25) were used as the isocratic elution, running at a flow rate of 0.2 mL/min. The detector was used with fluorescence (FLR) detection with a fluorescence excitation wavelength of 330 nm and a fluorescence emission wavelength of 439 nm.
For the tissue concentration study of 10-dehydroxyl-12-demethoxy-conophylline, 18 (SD) rats (half male and female) were randomly divided into three groups. The rats were administered intravenously at a dose of 8 mg/kg of 10-dehydroxyl-12-demethoxy-conophylline, and the rats were euthanized at 5, 20, and 45 min after administration. Samples of their tissues and blood were carefully collected and washed with sodium phosphate buffer (pH 7.4) to remove blood. Each tissue (0.2 g) was homogenized in normal saline (1 mL). Subsequently, an amount 120 μL of the homogenate was pipetted into 480 μL of methanol and vortexed for 3 min, and then centrifuged at 14,000 rpm for 10 min. The supernatant was then centrifuged again at 14,000 rpm for 10 min and stored at −70 °C until analysis. The preparation process for analysis was the same as described above for plasma.

HL-60 = test system: HL-60; parameters: method as in PMID 29772302; settings: cited from earlier work
[4] = Plasma pharmacokinetics in rats after i.v. and i.g. dosing (UPLC-FLR); type: in vivo, Sprague Dawley rats; parameters: CL: unit not given here; settings: rat; for MRT: Sprague-Dawley; for pharmacokinetic model fit: plasma concentration–time data, DAS 2.0
Description: Sprague Dawley rats (half male and female) with a body mass 180–220 g were provided by the Laboratory Animal Center of Medical University of Anhui (Hefei, China), Certificate number: SCXK(wan) 2015-002. Animals were housed under controlled conditions (temperature 22 ± 2 °C, humidity 50% ± 5%, 12 h dark/light cycle) with standardized diet and acclimatized for 7 days, prior to the experiments. All protocols and care of the rats were performed in strict compliance with the Guidelines for the Use of Laboratory Animals (National Research Council) and authorized by the Animal Care and Use Committee of Anhui University of Chinese Medicine.
as §2
The rat intravenous doses were determined as 4, 8, and 12 mg/kg, and the intragastric administration dose was 20 mg/kg. These were selected to investigate whether the pharmacokinetics of the drug was linear over the range of doses used. In all, 18 (SD) rats (half male and female) were randomly divided into three groups, namely, high-, medium- and low-dose groups. The rats fasted 12 h be before the administration of 10-dehydroxyl-12-demethoxy-conophylline but with free access to water. 10-dehydroxyl-12-demethoxy-conophylline was dissolved in normal saline and added with 5% ethanol. Amounts of 4, 8, and 12 mg/kg (0.5 mL/100 g) were injected into the tail vein of the rat, and 0.3 mL of blood was taken from the eyelid before administration (0 min) and 2, 5, 15, 30, 60, 90, 120, 180, 240, and 300 min after intravenous administration. Another 6 rats (half male and female) were administered an intragastrical (i.g.) dose of 20 mg/kg. Blood samples (0.3 mL) were collected by retro-orbital bleeding into heparinized 1.5mL tubes before administration (0 min) and 15, 30, 60, 90, 120, 240, 480, and 600 min after intragastric administration. Immediately after collection, the blood samples were centrifuged at 3500 rpm for 10 min to obtain plasma, and originating supernatants were also stored at −70 °C until analysis.
Plasma samples (90 μL) were spiked with 10 μL internal standard (100 ng/mL) and extracted with 300 μL of methanol by vortexing for 10 min. The plasma and aqueous phases were separated by centrifugation at 14,000 rpm for 10 min. The supernatants were transferred to another tube and evaporated to dryness at 50 °C. The residue was dissolved in 100 μL methanol and vortexed. A 2 μL aliquot of the solution was injected into the UPLC system for analysis.
The pharmacokinetic parameters were calculated using the pharmacokinetic software DAS 2.0 (Chinese Pharmacological Association, Beijing, China) by non-compartmental and compartmental analysis method. The elimination half-life (t1/2) was determined by linear regression of the terminal portion (last the points) of the plasma concentration–time curve. The area under the plasma concentration–time curve from zero to the last measurable plasma concentration point (AUC0-t) was calculated using the linear trapezoidal method. Extrapolation from time zero to infinity (AUC0-∞) was calculated as follows:AUC0-∞ = AUC0-t + Ct/ke,(2) where Ct is the last measurable plasma concentration and ke is the terminal elimination rate constant. […]

[5] = both sexes, Sprague Dawley, plasma, iv, 4 mg/kg i.v., mean ± SD, n = 6
[6] = both sexes, Sprague Dawley, plasma, iv, 8 mg/kg i.v., mean ± SD, n = 6
[7] = both sexes, Sprague Dawley, plasma, iv, 12 mg/kg i.v., mean ± SD, n = 6
[8] = both sexes, Sprague Dawley, plasma, po, 20 mg/kg i.g., mean ± SD, n = 6
[9] = 12 mg/kg i.v., mean ± SD, n = 6
[10] = 20 mg/kg i.g., mean ± SD, n = 6

Compound: CC[C@@]12CC(C(=O)OC)=C3Nc4cc5c(cc4[C@@]34CCN(C[C@H]3O[C@H]31)[C@@H]24)[C@@H]1C(O5)[C@@H](O)[C@@]2(CC)CC(C(=O)OC)=C3Nc4cc(OC)ccc4[C@@]34CCN1[C@@H]24 (stereo partly shown) [10-dehydroxyl-12-demethoxy-conophylline, 10-Dehydroxyl-12-demethoxy-conophylline]
- inhibitory activity on SMMC-7721 tumor cell line (SMMC-7721): significant inhibitory activity
- inhibitory activity on A-549 tumor cell line (A-549): significant inhibitory activity
- fraction unbound at 1 µg/mL ([1]; 1.00 µg/mL, equilibrium dialysis, read-out: protein binding degree (converted)): 0.181
- fraction unbound at 2.5 µg/mL ([1]; 2.50 µg/mL, equilibrium dialysis, read-out: protein binding degree (converted)): 0.174
- fraction unbound at 5 µg/mL ([1]; 5.00 µg/mL, equilibrium dialysis, read-out: protein binding degree (converted)): 0.188
- fraction unbound ([1]; rat, three concentrations (1.00, 2.50 and 5.00 µg/mL), summary in abstract, read-out: protein binding degree): < 0.2
- inhibitory activity on MCF-7 tumor cell line (MCF-7): significant inhibitory activity
- inhibitory activity on SW480 tumor cell line (SW480): significant inhibitory activity
- fraction unbound at 1 µg/mL ([2]; 1.00 µg/mL): 0.131
- fraction unbound at 2.5 µg/mL ([2]; 2.50 µg/mL): 0.159
- fraction unbound at 5 µg/mL ([2]; 5.00 µg/mL): 0.153
- concentration in the brain [3]: kept to a small amount
- tissue distribution at 5 min ([3]; 5 min): in the heart and kidney were markedly higher than in other tissues
- tissue distribution at 20 min ([3]; 20 min (equilibrium time)): the drug concentration in the lung reached the highest at this time
- tissue distribution at 45 min ([3]; 45 min (elimination period)): mainly distributed in the liver and kidney tissues
- tissue distribution, tissues with highest levels ([3]; overall, 8 mg/kg): detected in all examined tissues with the highest in kidney, liver, and lung; also recorded: the distribution in the kidney and lung is the highest
- inhibitory activity on HL-60 tumor cell line (HL-60): significant inhibitory activity
- AUC(0-inf) ([4]; both sexes, Sprague Dawley, plasma, iv, 4 mg/kg i.v.): 1140 ng·h/mL
- AUC(0-t) [4, 5]: 988 ng·h/mL
- clearance [4, 5]: 41 ± 70 mL/min/kg
- AUC(0-inf) [4, 6]: 2190 ng·h/mL
- AUC(0-t) [4, 6]: 2150 ng·h/mL
- clearance [4, 6]: 39 ± 120 mL/min/kg
- AUC(0-inf) ([4]; both sexes, Sprague Dawley, plasma, iv, 12 mg/kg i.v.): 5090 ng·h/mL
- AUC(0-t) [4, 7]: 3910 ng·h/mL
- clearance [4, 7]: 41 ± 50 mL/min/kg
- bioavailability ([4]; both sexes, Sprague Dawley, plasma, oral, 20 mg/kg i.g. versus i.v., read-out: absolute oral bioavailability): 15.8%
- AUC(0-inf) [4, 8]: 1240 ng·h/mL
- AUC(0-t) [4, 8]: 867 ng·h/mL
- Tmax ([4]; both sexes, Sprague Dawley, plasma, iv, 4 mg/kg, 4 mg/kg i.v., mean ± SD, n = 6): 0.0333 h
- half-life ([4]; both sexes, Sprague Dawley, plasma, iv, 4 mg/kg, 4 mg/kg i.v., mean ± SD, n = 6, read-out: t1/2β): 1.14 ± 0.0548 h
- Tmax ([4]; both sexes, Sprague Dawley, plasma, iv, 8 mg/kg, 8 mg/kg i.v., mean ± SD, n = 6): 0.0333 h
- half-life ([4]; both sexes, Sprague Dawley, plasma, iv, 8 mg/kg, 8 mg/kg i.v., mean ± SD, n = 6, read-out: t1/2β): 1.11 ± 0.0759 h
- Tmax ([4]; both sexes, Sprague Dawley, plasma, iv, 12 mg/kg, 12 mg/kg i.v., mean ± SD, n = 6): 0.0333 h
- half-life ([4]; both sexes, Sprague Dawley, plasma, iv, 12 mg/kg, 12 mg/kg i.v., mean ± SD, n = 6, read-out: t1/2β): 1.16 ± 0.0721 h
- half-life ([4]; both sexes, Sprague Dawley, plasma, iv, 12 mg/kg, i.v. dosing at 4, 8 and 12 mg/kg, read-out: half-life t1/2α of intravenous administration): ~0.117 h
- half-life ([4]; both sexes, Sprague Dawley, plasma, iv, 12 mg/kg, i.v. dosing at 4, 8 and 12 mg/kg, read-out: t1/2β of intravenous administration): ~1.15 h
- Tmax ([4]; both sexes, Sprague Dawley, plasma, po, 20 mg/kg, 20 mg/kg i.g., mean ± SD, n = 6): ~1.5 h
- half-life ([4]; both sexes, Sprague Dawley, plasma, po, 20 mg/kg, 20 mg/kg i.g., mean ± SD, n = 6, read-out: t1/2β): 1.17 ± 0.0447 h
- MRT ([4]; both sexes, plasma, iv, 4 mg/kg i.v., mean ± SD, n = 6): 1.52 h
- MRT ([4]; both sexes, plasma, iv, 8 mg/kg i.v., mean ± SD, n = 6): 1.42 h
- MRT ([4]; both sexes, plasma, iv, 12 mg/kg i.v., mean ± SD, n = 6): 1.36 h
- MRT ([4]; both sexes, plasma, po, 20 mg/kg i.g., mean ± SD, n = 6): 4.28 h
- AUC0–∞ ([4]; 4 mg/kg i.v., mean ± SD, n = 6): 68.478 ± 8.167 µg·min/mL
- V ([4]; 4 mg/kg i.v., mean ± SD, n = 6): 2.096 ± 0.0465 L/kg
- t1/2α ([4]; 4 mg/kg i.v., mean ± SD, n = 6): 0.1164 ± 0.03832 h
- V ([4]; 8 mg/kg i.v., mean ± SD, n = 6): 1.906 ± 0.012 L/kg
- t1/2α ([4]; 8 mg/kg i.v., mean ± SD, n = 6): 0.1185 ± 0.0318 h
- AUC0–∞ [4, 9]: 305.616 ± 17.432 µg·min/mL
- V [4, 9]: 2.014 ± 0.019 L/kg
- t1/2α [4, 9]: 0.1174 ± 0.03417 h
- CL [4, 10]: 0.046 ± 0.013
- V [4, 10]: 4.881 ± 2.390 L/kg
- t1/2α [4, 10]: 0.87358 ± 0.032 h
- t1/2β of intravenous administration ([4]; i.v. dosing at 4, 8 and 12 mg/kg): about 68 min
- pharmacokinetic model fit [4]: fit to a two-room model
- pharmacokinetic model fit ([4]; listed as 10-dehydroxyl-12-demethoxyconophylline): consistent with a two-compartment pharmacokinetic model
- linear correlation between AUC0→t and dose (r) ([4]; single i.v. dose 4, 8 and 12 mg/kg): 0.9821
